The Deep4Chem optical property database
Blank lines part the entries; values can stand above or below the molecule they belong to.

Test: photoluminescence quantum yield (fraction); solvent given as SMILES

photoluminescence quantum yield (in ClCCl): 0.1
SMILES: F[B-]1(F)n2c(-c3ccccc3)cc(-c3cccs3)c2N=C2C(c3cccs3)=CC(c3ccccc3)=[N+]21

SMILES: CCCCCCCCCCCCCCCCOc1cc(C#Cc2ccc3ccccc3c2-c2c(C#Cc3cc(OCCCCCCCCCCCCCCCC)c(C#Cc4ccc(C=C(C#N)C#N)cc4)cc3OCCCCCCCCCCCCCCCC)ccc3ccccc23)c(OCCCCCCCCCCCCCCCC)cc1C#Cc1ccc(C=C(C#N)C#N)cc1
photoluminescence quantum yield (in Brc1ccccc1): 0.63
photoluminescence quantum yield (in C1CCCCC1): 0.99
photoluminescence quantum yield (in C1CCOC1): 0.3
photoluminescence quantum yield (in C1COCCO1): 0.94
photoluminescence quantum yield (in CCCCCC): 0.98
photoluminescence quantum yield (in CCCCCCCCO): 0.52
photoluminescence quantum yield (in CCCCOCCCC): 0.97
photoluminescence quantum yield (in CCOC(C)=O): 0.37
photoluminescence quantum yield (in CCOCC): 0.87
photoluminescence quantum yield (in Cc1ccccc1): 0.95
photoluminescence quantum yield (in ClC(Cl)(Cl)Cl): 0.95
photoluminescence quantum yield (in ClC(Cl)Cl): 0.81
photoluminescence quantum yield (in ClCCl): 0.23

photoluminescence quantum yield (in C1CCCCC1): 0.8
SMILES: Cc1cc(C)c(B2c3cc(C(C)(C)C)ccc3-c3cccc4cc(C(C)(C)C)cc2c34)c(C)c1

photoluminescence quantum yield (in CC#N): 0.43
SMILES: CC(=O)c1c2c(c(C(C)=O)c3c1OC(CC(=O)O)O3)OCO2

photoluminescence quantum yield (in ClCCl): 0.81
SMILES: CCCCN1C(=O)c2cccc3c(C#CC#Cc4ccc5c6c(cccc46)C(=O)N(CCCC)C5=O)ccc(c23)C1=O

photoluminescence quantum yield (in C1CCCCC1): 0.84
photoluminescence quantum yield (in CC#N): 0.73
photoluminescence quantum yield (in CO): 0.55
photoluminescence quantum yield (in ClCCl): 0.64
SMILES: C(C#Cc1ccc2ccc3cccc4ccc1c2c34)#Cc1cccc2ccccc12

photoluminescence quantum yield (in C1COCCO1): 0.73
photoluminescence quantum yield (in CC#N): 0.65
photoluminescence quantum yield (in CO): 0.14
photoluminescence quantum yield (in ClCCl): 0.81
SMILES: N#Cc1nc2c(OCc3ccccc3)nc(N)nc2n1Cc1ccccc1

photoluminescence quantum yield (in CC#N): 0.558
photoluminescence quantum yield (in CCO): 0.048
photoluminescence quantum yield (in CN(C)C=O): 0.041
photoluminescence quantum yield (in CS(C)=O): 0
photoluminescence quantum yield (in ClCCl): 0.28
SMILES: c1ccc(-c2csc(-c3ccncc3)n2)cc1

photoluminescence quantum yield (in O): 0.0008
SMILES: C/C=C/C=C/C1=NC(=C\c2ccc([O-])cc2)/C(=O)N1C

SMILES: COc1ccc(/C=C/c2ccccc2)cc1
photoluminescence quantum yield (in C1CCCCC1): 0.022
photoluminescence quantum yield (in CC#N): 0.007
photoluminescence quantum yield (in CC(C)O): 0.011
photoluminescence quantum yield (in CCCCOCCCC): 0.02
photoluminescence quantum yield (in CCOC(C)=O): 0.016
photoluminescence quantum yield (in CCOCC): 0.015

SMILES: CN(C)c1[se]c(-c2ccccc2)nc1-c1ccccc1
photoluminescence quantum yield (in ClC(Cl)Cl): 0.029

photoluminescence quantum yield (in C1CCOC1): 0.58
SMILES: Cc1cc(C)c([B-]2(c3c(C)cc(C)cc3C)[O+]=P(c3ccccc3)(c3ccccc3)c3cc(-c4ccccc4)sc3-c3sc(-c4ccccc4)cc32)c(C)c1

photoluminescence quantum yield (in CCO): 0.1
photoluminescence quantum yield (in CO): 0.09
photoluminescence quantum yield (in CS(C)=O): 0.14
SMILES: CN1/C(=C/C=C(/C=C/c2sc3ccccc3[n+]2C)c2ccc(F)cc2)Sc2ccccc21

photoluminescence quantum yield (in CCCCCC): 0.12
SMILES: CC(C)[Si](C#Cc1c2ccccc2c(C#C[Si](C(C)C)(C(C)C)C(C)C)c2nc3c(ccc4cc5ccccc5cc43)nc12)(C(C)C)C(C)C

SMILES: O=Cc1ccc(C2=C3C=c4c(oc5ccccc45)=[N+]3[B-](F)(F)n3c2cc2c4ccccc4oc23)cc1
photoluminescence quantum yield (in C1CCCCC1): 0.63
photoluminescence quantum yield (in C1CCOC1): 0.42
photoluminescence quantum yield (in CC#N): 0.37
photoluminescence quantum yield (in CCOC(C)=O): 0.39
photoluminescence quantum yield (in CN(C)C=O): 0.45
photoluminescence quantum yield (in CO): 0.44
photoluminescence quantum yield (in Cc1ccccc1): 0.53
photoluminescence quantum yield (in ClCCl): 0.5

photoluminescence quantum yield (in C1CCOC1): 0.015
SMILES: CC(C)(C)c1ccc(C2=C(c3ccc(C(C)(C)C)cc3)[Si](c3ccccc3)(c3ccccc3)c3ccccc32)cc1

photoluminescence quantum yield (in CCCO): 0.81
SMILES: Cn1c2ccccc2c2c1c1ccccc1n2C

photoluminescence quantum yield (in C1CCCCC1): 0.14
photoluminescence quantum yield (in CC#N): 0.083
photoluminescence quantum yield (in CCO): 0.0081
photoluminescence quantum yield (in c1ccccc1): 0.23
SMILES: CN(C)c1ccc2c(c1)-c1ccccc1C2=O

photoluminescence quantum yield (in CC#N): 0.731
SMILES: CCOC(=O)c1nn(-c2ccc(OC)cc2)nc1N1CCCC1

photoluminescence quantum yield (in ClCCl): 0.19
SMILES: CCCc1cc2c(s1)-c1cc3c(cc1NB2c1ccccc1)-c1sc(CCC)cc1B(c1ccccc1)N3

photoluminescence quantum yield (in O): 0.093
SMILES: CC(=O)c1ccn2c3c(c(-c4cc[n+](C)cc4)c2c1)CN(C)C3=O

photoluminescence quantum yield (in CCO): 0.47
SMILES: CCOC(=O)c1cc(C(=O)OCC)c2cc(NC)ccc2n1

SMILES: CC1(C)c2ccccc2N(c2ccc(-c3ccc(C#N)c(C#N)n3)cc2)c2ccccc21
photoluminescence quantum yield (in Cc1ccccc1): 0.489
photoluminescence quantum yield (in N#Cc1ccc2c(c1)c1ccccc1n2-c1cccc(-n2c3ccccc3c3ccccc32)c1): 0.904

photoluminescence quantum yield (in C1CCOC1): 0.017
SMILES: C(=C(c1ccccc1)c1ccccc1)c1ccc(C=C(c2ccccc2)c2ccccc2)cc1

photoluminescence quantum yield (in C1COCCO1): 0.27
SMILES: c1ccc(-c2ccc(-c3cc(-c4ccc(-c5ccccc5)cc4)cc(-c4ccc(-c5ccccc5)cc4)c3)cc2)cc1

photoluminescence quantum yield (in ClCCl): 0.00069
SMILES: COC(=O)C1=C(C(=O)OC)C2(c3ccccc3-c3ccc([N+](=O)[O-])cc32)C2(/C=C/c3ccccc3)c3cc(OC)c(OC)cc3CCN12 (configuration not stated)

SMILES: CCCCCCCCCCCCn1cccc1/C=C/c1cc(OCCCC)c(/C=C/c2cccn2CCCCCCCCCCCC)cc1OCCCC
photoluminescence quantum yield (in Cc1ccccc1): 0.4

photoluminescence quantum yield (in ClC(Cl)Cl): 0.34
SMILES: CCCCCCCCCCOc1cc(OCCCCCCCCCC)cc(C2=C3C(/C=C/c4ccc(OC)cc4)=CC(/C=C/c4ccc(OC)cc4)=[N+]3[B-](F)(F)n3c(/C=C/c4ccc(OC)cc4)cc(C=Cc4ccc(OC)cc4)c32)c1

SMILES: CN(C)c1ccc(N(C)C)cc1
photoluminescence quantum yield (in C1CCCCC1): 0.21

photoluminescence quantum yield (in C1CCCCC1): 0.55
photoluminescence quantum yield (in CC#N): 0.38
photoluminescence quantum yield (in CCO): 0.41
photoluminescence quantum yield (in CCOC(C)=O): 0.31
SMILES: COC(=O)c1nc(-c2ccc(OC)cc2)oc1C

photoluminescence quantum yield (in CC(C)O): 0.1
SMILES: CN1C(=CC2=C([O-])C(=CC3=[N+](C)c4ccc(Cl)cc4C3(C)C)C2=O)C(C)(C)c2cc(Cl)ccc21

SMILES: O=C1c2cccc3c(NCc4ccccn4)c4ccccc4c(c23)C(=O)N1Cc1ccccn1
photoluminescence quantum yield (in C1CCOC1): 0.07
photoluminescence quantum yield (in CCCCCC): 0.04
photoluminescence quantum yield (in CCO): 0.07
photoluminescence quantum yield (in Cc1ccccc1): 0.08
photoluminescence quantum yield (in ClCCl): 0.1

photoluminescence quantum yield (in ClCCl): 0.0361
SMILES: COc1cc(OC)cc(C2=CC(c3ccccc3)=C(c3ccccc3)C2)c1

photoluminescence quantum yield (in C1CCCCC1): 0.31
photoluminescence quantum yield (in CC#N): 0.14
photoluminescence quantum yield (in ClCCl): 0.27
SMILES: O=S1c2ccc(-c3c4ccccc4cc4ccccc34)cc2-c2cc(-c3c4ccccc4cc4ccccc34)ccc21

photoluminescence quantum yield (in ClCCl): 0.162
SMILES: c1ccc(-c2nc(-c3c[nH]c4ccccc34)n3ccccc23)cc1

photoluminescence quantum yield (in ClCCl): 0.1
SMILES: CC(C)(C)c1ccc2c(c1)c1cc(C(C)(C)C)ccc1n2-c1ccc(C#Cc2ccc(C=O)cc2)cc1

SMILES: CC(C)(C)c1ccc(N(c2ccc(S(=O)(=O)c3ccc(S(=O)(=O)c4ccc(N(c5ccc(C(C)(C)C)cc5)c5ccccc5C(C)(C)C)cc4)cc3)cc2)c2ccccc2C(C)(C)C)cc1
photoluminescence quantum yield (in Cc1ccccc1): 0.8

photoluminescence quantum yield (in C1CCOC1): 0.056
SMILES: CC(C)(C)c1ccc(C2=C(c3ccc(-n4c5ccccc5c5ccccc54)cc3)S(=O)(=O)c3c2sc(-c2ccc(-n4c5ccccc5c5ccccc54)cc2)c3-c2ccc(C(C)(C)C)cc2)cc1

SMILES: COc1ccc2c3ccc(OC)cc3n(-c3ccc(-c4nnc(-c5c(C(C)C)cc(C(C)C)cc5C(C)C)o4)cc3)c2c1
photoluminescence quantum yield (in Cc1ccccc1): 0.03

photoluminescence quantum yield (in ClCCl): 0.15
SMILES: O=c1c2cccc3cccc(c32)c2nc3c4ccccc4c4ccccc4c3n12

photoluminescence quantum yield (in C1CCCCC1): 0.24
SMILES: CCCCCCCCOc1ccc2c3c(c4ccc(OCCCCCCCC)cc4c2c1)C(C)(C)c1ccccc1-3

SMILES: COc1cc2c3c(c4cc(OC)c(OC)c(OC)c4c2c(OC)c1OC)=[N+]1C(=C(c2c(C)cc(C)cc2C)c2cc4c5cc(OC)c(OC)c(OC)c5c5c(OC)c(OC)c(OC)cc5c4n2[B-]1(F)F)C=3
photoluminescence quantum yield (in C1CCCCC1): 0.1
photoluminescence quantum yield (in C1CCOC1): 0.001
photoluminescence quantum yield (in CC#N): 0.001
photoluminescence quantum yield (in Cc1ccccc1): 0.001
photoluminescence quantum yield (in ClCCl): 0.001

SMILES: Cc1ccc(C2=C3C=CC(c4ccccc4)=[N+]3[B-](F)(F)n3c2ccc3-c2ccccc2)cc1
photoluminescence quantum yield (in C1CCCCC1): 0.31
photoluminescence quantum yield (in C1CCOC1): 0.22
photoluminescence quantum yield (in C1COCCO1): 0.25
photoluminescence quantum yield (in CCOC(C)=O): 0.2
photoluminescence quantum yield (in CO): 0.21
photoluminescence quantum yield (in Cc1ccccc1): 0.42
photoluminescence quantum yield (in ClC(Cl)Cl): 0.31

photoluminescence quantum yield (in ClC(Cl)Cl): 0.06
SMILES: Oc1ccc(C2=[N+]3C(=C(c4ccccc4)c4cccn4[B-]3(F)F)C=C2)cc1

SMILES: CCOC(=O)CN1C(=O)C2=C(c3ccc(N4CCCCC4)cc3)N(CC(=O)OCC)C(=O)C2=C1c1ccccc1
photoluminescence quantum yield (in CC#N): 0.01
photoluminescence quantum yield (in CS(C)=O): 0.12
photoluminescence quantum yield (in Cc1ccccc1): 0.34

photoluminescence quantum yield (in ClCCl): 0.48
SMILES: Fc1ccc(-c2c3ccccc3nc3cc4ccccc4cc23)cc1

photoluminescence quantum yield (in C1CCCCC1): 0.36
SMILES: COc1ccccc1

photoluminescence quantum yield (in C1CCOC1): 0.23
SMILES: Cc1cc(C)c([B-]2(c3c(C)cc(C)cc3C)[O+]=P(c3ccccc3)(c3ccccc3)c3ccsc3-c3sccc32)c(C)c1

SMILES: COc1cc(-c2nc3c4cccnc4c4ncccc4c3[nH]2)c(OC)cc1/C=C/c1ccncc1
photoluminescence quantum yield (in C1CCOC1): 0.79
photoluminescence quantum yield (in CC#N): 0.48
photoluminescence quantum yield (in CN(C)C=O): 0.59
photoluminescence quantum yield (in Cc1ccccc1): 0.34

SMILES: COc1ccc2ncccc2c1
photoluminescence quantum yield (in CC#N): 0.071
photoluminescence quantum yield (in CCCC#N): 0.075
photoluminescence quantum yield (in Cc1ccccc1): 0.014

photoluminescence quantum yield (in C1CCOC1): 0.82
SMILES: N#Cc1ccc(/C=C/C(F)(F)F)c(N)c1

SMILES: CCCCN1C(=O)c2cccc3cccc(c23)C1=O
photoluminescence quantum yield (in Cc1ccccc1): 0.04

photoluminescence quantum yield (in ClCCl): 0.2
SMILES: COc1ccc(-c2cc(-c3ccc(C(F)(F)F)cc3)nn2C)cc1

photoluminescence quantum yield (in c1cc(-c2cccc(-n3c4ccccc4c4ccccc43)c2)cc(-n2c3ccccc3c3ccccc32)c1): 0.98
SMILES: Cc1cc(-c2nc(-c3ccccc3)nc(-c3ccccc3)n2)c(C)cc1-c1ccc2c(c1)C1(c3ccccc3-c3ccccc31)c1ccccc1N2c1ccccc1

photoluminescence quantum yield (in ClCCl): 0.039
SMILES: Cc1ccc(C(=O)c2c(C)c3ccc4cccc5c6cccc7ccc2c(c76)c3c45)cc1

SMILES: CCC1(CC)c2ccccc2-c2ccc(C#Cc3cc(C#Cc4ccc5c(c4)C(CC)(CC)c4ccccc4-5)c4ccc5c(C#Cc6ccc7c(c6)C(CC)(CC)c6ccccc6-7)cc(C#Cc6ccc7c(c6)C(CC)(CC)c6ccccc6-7)c6ccc3c4c65)cc21
photoluminescence quantum yield (in Cc1ccccc1): 0.64
